The assay deals with T1, mouse TRPM3a2 (mTRPM3) ion channel (Mus musculus, UniProt J9SQF3).
T1 construct: expressed in transfected cells; host or cells: flip-in HEK293
Put plainly: TRPM3 ion channel driven Ca2+ uptake, Fluo-4 AM assay (PS-stimulated, overexpressing flip-in HEK293 cells). Format: cell-based. Particulars: PS (50 μM) stimulated. On the procedure: In order to monitor the inhibition of the mouse TRPM3a2 (mTRPM3) ion channel by the compounds of the invention, a cellular system making use of an mTRPM3alpha2 or hTRPM3 overexpressing cell line (flip-in HEK293) was used. The TRPM3 channel was stimulated/opened with Pregnenolone sulfate (PS) (50 μM) which results in Ca^2+ influx.
For mTRPM3, the intracellular Ca^2+ was measured with a Calcium responsive dye, Fluor-4 AM ester (Invitrogen). Cells were cultured until a confluence of 80-90%, washed with Versene (Invitrogen) and detached from the surface by a short incubation with 0.05% Trypsin (Invitrogen). The trypsination process was stopped by the addition of complete cell culture medium (DMEM, glutamax, 10% FCS, NEAA, Pen-Strep). Cells were collected and resuspended in Krebs buffer without Calcium at RT.
Prior the cell seeding (±2000 cells/well into a black, 384 well plate (Greiner)) the diluted compound was added in the assay plate, together with the PS dissolved in Krebs buffer containing Calcium. […] Directly after cell addition the plates were read on an Envision fluorescence reader (Perkin Elmer) by an Excitation of 485 nm and emission at 535 nm.
Channel inhibition was calculated compared to a non-PS stimulated control versus a condition stimulated with PS (50 μM) with vehicle. The ability of the compounds of the invention to inhibit this activity was determined as: Percentage inhibition=[1-((RFU determined for sample with test compound present—RFU determined for sample with positive control inhibitor) divided by (RFU determined in the presence of vehicle—RFU determined for sample with positive control inhibitor))]*100.

From patent US20240336602A1 (Katholieke Universiteit Leuven, priority 2020, published 2024) come the findings set out here.

Where only a bound is given, the exact number is not on record here.

T1 sequence (J9SQF3 1-1709 isoform J9SQF3-12): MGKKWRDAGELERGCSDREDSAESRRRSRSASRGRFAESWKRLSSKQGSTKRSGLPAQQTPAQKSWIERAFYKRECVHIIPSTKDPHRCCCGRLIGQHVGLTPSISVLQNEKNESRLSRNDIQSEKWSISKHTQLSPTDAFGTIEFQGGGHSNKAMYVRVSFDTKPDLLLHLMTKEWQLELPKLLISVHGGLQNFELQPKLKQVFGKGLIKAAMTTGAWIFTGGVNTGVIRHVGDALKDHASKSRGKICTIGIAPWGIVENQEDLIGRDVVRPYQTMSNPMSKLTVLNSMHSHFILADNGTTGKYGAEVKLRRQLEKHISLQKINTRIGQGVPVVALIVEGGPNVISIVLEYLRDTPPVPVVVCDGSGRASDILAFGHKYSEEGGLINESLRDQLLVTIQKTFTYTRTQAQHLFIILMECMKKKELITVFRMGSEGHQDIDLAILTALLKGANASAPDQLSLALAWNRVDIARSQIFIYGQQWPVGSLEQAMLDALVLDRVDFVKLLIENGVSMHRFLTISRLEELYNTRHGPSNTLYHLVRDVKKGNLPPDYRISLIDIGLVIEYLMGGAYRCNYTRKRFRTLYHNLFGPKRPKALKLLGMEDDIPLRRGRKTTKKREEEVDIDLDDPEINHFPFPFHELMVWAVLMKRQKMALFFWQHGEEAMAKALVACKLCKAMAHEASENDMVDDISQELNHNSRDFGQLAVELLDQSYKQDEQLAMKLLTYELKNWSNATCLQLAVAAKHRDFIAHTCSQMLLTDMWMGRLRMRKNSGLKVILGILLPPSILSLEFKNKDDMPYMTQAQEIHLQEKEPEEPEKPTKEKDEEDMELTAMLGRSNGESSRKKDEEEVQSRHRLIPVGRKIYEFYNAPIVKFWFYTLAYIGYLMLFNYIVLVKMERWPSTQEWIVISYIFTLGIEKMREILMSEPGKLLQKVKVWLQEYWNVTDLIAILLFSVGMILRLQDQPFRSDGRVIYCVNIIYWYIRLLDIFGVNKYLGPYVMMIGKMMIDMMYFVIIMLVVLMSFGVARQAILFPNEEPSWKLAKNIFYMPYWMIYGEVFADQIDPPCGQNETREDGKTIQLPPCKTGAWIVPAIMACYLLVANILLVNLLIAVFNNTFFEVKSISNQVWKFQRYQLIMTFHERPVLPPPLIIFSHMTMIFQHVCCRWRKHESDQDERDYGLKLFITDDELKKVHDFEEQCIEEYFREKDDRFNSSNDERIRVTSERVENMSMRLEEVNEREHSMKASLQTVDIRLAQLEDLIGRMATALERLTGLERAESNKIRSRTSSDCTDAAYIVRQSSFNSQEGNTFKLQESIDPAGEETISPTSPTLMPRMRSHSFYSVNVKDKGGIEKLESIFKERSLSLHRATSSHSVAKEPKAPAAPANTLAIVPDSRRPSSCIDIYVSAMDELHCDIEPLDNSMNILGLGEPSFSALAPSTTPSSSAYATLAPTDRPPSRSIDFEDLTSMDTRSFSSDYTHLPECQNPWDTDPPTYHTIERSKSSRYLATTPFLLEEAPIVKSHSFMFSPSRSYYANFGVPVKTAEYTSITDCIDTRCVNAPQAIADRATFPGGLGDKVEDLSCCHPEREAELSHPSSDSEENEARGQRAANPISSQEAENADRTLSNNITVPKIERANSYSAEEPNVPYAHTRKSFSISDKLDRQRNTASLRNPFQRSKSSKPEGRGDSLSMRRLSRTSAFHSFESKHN

Turning to `COc1ncccc1COc1ccc2oc(C)c(C(=O)NC3(CO)CCNC3=O)c2c1` (single isomer, unassigned) [522 - En 1], the IC50 (usually the concentration needed to halve the response being measured) (cpds. 500-599) is at most 1 µM.

For the compound `Cc1oc2ccc(OCc3cccn(C)c3=O)cc2c1C(=O)NC1CCNCC1(F)F` (single isomer, unassigned) [544 - En 1], the IC50 (cpds. 500-599) was 1 to 20 µM. Still for that read-out and setting: to `Cc1oc2ccc(OCc3cccc(O)n3)cc2c1C(=O)NC1CCNCC1(F)F` (single isomer, unassigned) [569 - En 1, N-(3,3-difluoropiperidin-4-yl)-2-methyl-5-((6-oxo-1,6-dihydropyridin-2-yl)methoxy)benzofuran-3-carboxamide] belongs 1 to 20 µM. Same read-out and setting: to `Cc1oc2ccc(OCc3cccc(O)n3)cc2c1C(=O)NC1CCNCC1(F)F` (single isomer, unassigned) [569 - En 2, N-(3,3-difluoropiperidin-4-yl)-2-methyl-5-((6-oxo-1,6-dihydropyridin-2-yl)methoxy)benzofuran-3-carboxamide] belongs at least 20 µM. Still for that read-out and setting: to `Cc1ncc(COc2ccc3oc(C)c(C(=O)NC4(C(N)=O)CCCOC4)c3c2)s1` (single isomer, unassigned) [590 - En 1] belongs at most 1 µM; to `Cc1ncccc1COc1ccc2oc(C)c(C(=O)NC3(C(N)=O)CCOC3)c2c1` (single isomer, unassigned) [591 - En 1], at most 1 µM. Regarding `Cc1ncccc1COc1ccc2oc(C)c(C(=O)NC3(C(N)=O)CCOC3)c2c1` (single isomer, unassigned) [591 - En 2], for the setting “cpds. 500-599”, the IC50 is at most 1 µM. As to `Cc1ncc(COc2ccc3oc(C)c(C(=O)NC4(C(N)=O)CCOC4)c3c2)s1` (single isomer, unassigned) [592 - En 1], where the note is “cpds. 500-599”, the IC50 is at most 1 µM.

With `Cc1ncsc1COc1ccc2oc(C)c(C(=O)NC3(C(N)=O)CCOC3)c2c1` (single isomer, unassigned) [593 - En 1], the IC50 (cpds. 500-599) was at most 1 µM.

With `Cc1ccc(COc2ccc3oc(C)c(C(=O)NC4(C(N)=O)CCOC4)c3c2)cn1` (single isomer, unassigned) [594 - En 1], under “cpds. 500-599”, the IC50 was at most 1 µM. The compound `Cc1ccc(COc2ccc3oc(C)c(C(=O)NC4(C(N)=O)CCOC4)c3c2)cn1` (single isomer, unassigned) [594 - En 2] returned an IC50 (cpds. 500-599) of at most 1 µM. As to `Cc1oc2ccc(OCc3ccccn3)cc2c1C(=O)NC1(C(N)=O)CCOC1` (single isomer, unassigned) [595 - En 1], the half-inhibitory concentration (IC50) (cpds. 500-599) was at most 1 µM.

Where the note is “cpds. 500-599”, `COc1ncccc1COc1ccc2oc(C)c(C(=O)NC3(C(N)=O)CCOC3)c2c1` (single isomer, unassigned) [597 - En 1] gave a 50% inhibitory concentration (IC50) of at most 1 µM. Take `Cc1oc2ccc(OCc3c(F)cnn3C)cc2c1C(=O)NC1(C(N)=O)CCOC1` (single isomer, unassigned) [598 - En 1]: the IC50 (cpds. 500-599) was at most 1 µM. Turning to `CNC(=O)C(CO)NC(=O)c1c(C)oc2ccc(OCc3scnc3C)cc12` (single isomer, unassigned) [600 - En 1], the IC50 (cpds. 600-666) is at most 1 µM. On the same count and under the same terms, to `CNC(=O)C(CO)NC(=O)c1c(C)oc2ccc(OCc3ccccn3)cc12` (single isomer, unassigned) [601 - En 1] belongs at most 1 µM. Still for that read-out and setting: to `CNC(=O)C(CO)NC(=O)c1c(C)oc2ccc(OCc3ccccn3)cc12` (single isomer, unassigned) [601 - En 2] belongs at most 1 µM. In turn, `Cc1oc2ccc(OCc3cccnc3O)cc2c1C(=O)NC1CNCC1(F)F` (single isomer, unassigned) [640 - En 1] yielded an IC50 (cpds. 600-666) of at most 1 µM. The same measure, in the same setting: to `Cc1oc2ccc(OCc3ccnn3C)cc2c1C(=O)NC1COCC1O` (single isomer, unassigned) [655 - En 1] belongs at most 1 µM; to `Cc1oc2ccc(OCc3ccnn3C)cc2c1C(=O)NC1COCC1O` (single isomer, unassigned) [655 - En 2], at most 1 µM. On the same count and under the same terms, to `Cc1oc2ccc(OCc3ccnn3C)cc2c1C(=O)NC1COCC1O` (single isomer, unassigned) [656 - En 1] belongs 1 to 20 µM. For `Cc1oc2ccc(OCc3ccnn3C)cc2c1C(=O)NC1COCC1O` (single isomer, unassigned) [656 - En 2], the IC50 (cpds. 600-666) is 1 to 20 µM. In the case of `NC(=O)c1oc2ccc(OCc3cccnc3C(F)(F)F)cc2c1C(=O)NC1CCNCC1(F)F` (single isomer, unassigned) [657 - En 1, N3-(3,3-difluoropiperidin-4-yl)-5-((2-(trifluoromethyl)pyridin-3-yl)methoxy)benzofuran-2,3-dicarboxamide], where the note is “cpds. 600-666”, the IC50 was at least 20 µM. For `Cc1oc2ccc(OCc3ccccn3)cc2c1C(=O)NC1(CO)CCCNC1=O` (single isomer, unassigned) [719 - En 1], the IC50 (cpds. 667-751) was at most 1 µM. On to `COc1ncccc1COc1ccc2oc(C)c(C(=O)NC(C)(CO)C(N)=O)c2c1` (single isomer, unassigned) [720 - En 1], for which the 50% inhibitory concentration (IC50) (cpds. 667-751) is at most 1 µM. The compound `Cc1ncc(COc2ccc3oc(C)c(C(=O)NC4(C(N)=O)CCOC4)c3c2)o1` (single isomer, unassigned) [725 - En 1] yielded an IC50 (cpds. 667-751) of at most 1 µM. On the same count and under the same terms, to `Cc1ncsc1COc1ccc2oc(C)c(C(=O)NC3(CO)CCNC3)c2c1` (single isomer, unassigned) [728 - En 1] belongs 1 to 20 µM; to `Cc1ncsc1COc1ccc2oc(C)c(C(=O)NC3(CO)CCNC3)c2c1` (single isomer, unassigned) [728 - En 2], at most 1 µM.

For the compound `Cc1ncsc1COc1ccc2oc(C)c(C(=O)NC(Cn3cncn3)C(N)=O)c2c1` (single isomer, unassigned) [729 - En 1], under “cpds. 667-751”, the IC50 was at most 1 µM. On the same count and under the same terms, to `Cc1ncsc1COc1ccc2oc(C)c(C(=O)NC(Cn3cncn3)C(N)=O)c2c1` (single isomer, unassigned) [729 - En 2] belongs at most 1 µM. The same measure, in the same setting: to `Cc1oc2ccc(OCc3c[nH]nc3C(F)(F)F)cc2c1C(=O)NC1(CO)CCCNC1=O` (single isomer, unassigned) [731 - En 1] belongs at most 1 µM; to `Cc1oc2ccc(OCc3ccnn3C)cc2c1C(=O)NC1(CO)CCCNC1=O` (single isomer, unassigned) [732 - En 1], at most 1 µM; to `Cc1oc2ccc(OCc3ccnn3C)cc2c1C(=O)NC1(CO)CCNC1=O` (single isomer, unassigned) [733 - En 1], at most 1 µM. The same measure, in the same setting: to `Cc1oc2ccc(OCc3cccnn3)cc2c1C(=O)NC1(CO)CCNC1=O` (single isomer, unassigned) [734 - En 1] belongs at most 1 µM; to `Cc1oc2ccc(OCc3cccnn3)cc2c1C(=O)NC1(CO)CCNC1=O` (single isomer, unassigned) [734 - En 2], 1 to 20 µM. For the compound `Cc1oc2ccc(OCc3ccc(F)cn3)cc2c1C(=O)NC1(CO)CCNC1=O` (single isomer, unassigned) [735 - En 1], the IC50 (cpds. 667-751) is at most 1 µM. Still for that read-out and setting: to `Cc1oc2ccc(OCc3cccnc3C(F)F)cc2c1C(=O)NC1(CO)CCNC1=O` (single isomer, unassigned) [736 - En 1] belongs at most 1 µM. `Cc1oc2ccc(OCc3cccnc3C(F)F)cc2c1C(=O)NC1(CO)CCCNC1=O` (single isomer, unassigned) [737 - En 1] displayed an IC50 (cpds. 667-751) of at most 1 µM. The compound `Cc1oc2ccc(OCc3ccnn3CC(F)F)cc2c1C(=O)NC1(C(N)=O)CCOC1` (single isomer, unassigned) [740 - En 1] gave an IC50 (cpds. 667-751) of at most 1 µM. Same read-out and setting: to `Cc1oc2ccc(OCc3ccnn3CC(F)F)cc2c1C(=O)NC1(C(N)=O)CCOC1` (single isomer, unassigned) [740 - En 2] belongs at most 1 µM.
